Measurements taken from US20130172320A1, “PYRIDO [4,3-B] INDOLE AND PYRIDO [3,4-B] INDOLE DERIVATIVES AND METHODS OF USE” (priority 2010, published 2013).

Experiments:
[1] = target: T1, human recombinant adrenergic α2A receptor (Homo sapiens, UniProt P08913); assay: Adrenergic α2A radioligand binding ([3H]MK-912); conditions: compound at 0.1 μM; read-out: Percentage inhibition of ligand binding, Adrenergic (0.1 μM) a2A
T1 construct: expressed in transfected cells; host or cells: insect Sf9 cells
T1 sequence (P08913 1-465): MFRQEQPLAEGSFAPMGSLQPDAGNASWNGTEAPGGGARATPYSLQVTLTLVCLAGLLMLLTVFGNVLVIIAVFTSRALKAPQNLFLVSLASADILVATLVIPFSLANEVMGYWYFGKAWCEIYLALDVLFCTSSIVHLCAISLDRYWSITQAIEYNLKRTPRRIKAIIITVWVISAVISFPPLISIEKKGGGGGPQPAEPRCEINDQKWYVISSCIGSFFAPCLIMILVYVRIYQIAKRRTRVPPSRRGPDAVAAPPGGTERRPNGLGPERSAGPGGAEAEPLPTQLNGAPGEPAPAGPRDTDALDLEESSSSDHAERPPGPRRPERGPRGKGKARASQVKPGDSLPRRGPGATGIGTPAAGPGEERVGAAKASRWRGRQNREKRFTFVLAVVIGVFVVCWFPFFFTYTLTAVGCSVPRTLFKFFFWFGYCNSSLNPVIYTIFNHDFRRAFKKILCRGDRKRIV
Experimental: To evaluate in radioligand binding assays the activity of compounds of the invention, human recombinant adrenergic α2A receptor expressed in insect Sf9 cells (Uhlen, S. et al, J. Pharmacol. Exp. Ther. 271:1558, 1994) in a modified Tris-HCl buffer (50 mM Tris-HCl, pH 7.4, 12.5 mM MgCl2, 2 mM EDTA) was used. Compounds of invention were incubated with 1 nM […] for 60 min at 25° C. MK912 is (2S-trans)-1,3,4,5′,6,6′,7,12b-octahydro-1′,3′-dimethyl-spiro[2H-benzofuro[2,3-a]quinolizine-2,4′(111)-pyrimidin]-2′(3′H)-one hydrochloride Non-specific binding was estimated in the presence of 10 μM WB-4101 (2-(2,6-Dimethoxyphenoxyethyl)aminomethyl-1,4-benzodioxane hydrochloride). Receptor proteins were filtered and washed, the filters were then counted to determine [^3H]MK-912 specifically bound. Compounds were screened at 1 μM or lower, using 1% DMSO as vehicle. Biochemical assay results are presented as the percent inhibition of specific binding in Table 3.

[2] = target: T2, rat adrenergic α1A receptor (Rattus norvegicus, UniProt P43140); assay: Adrenergic α1A radioligand binding ([3H]Prazosin); set-up: species or system Wistar Rat; conditions: compound at 0.1 μM; read-out: Percentage inhibition of ligand binding, Adrenergic (0.1 μM) a1A
T2 construct: rat adrenergic α1A receptor obtained from Wistar Rat submaxillary glands; from tissue; host or cells: Wistar Rat submaxillary glands
T2 sequence (P43140 1-466): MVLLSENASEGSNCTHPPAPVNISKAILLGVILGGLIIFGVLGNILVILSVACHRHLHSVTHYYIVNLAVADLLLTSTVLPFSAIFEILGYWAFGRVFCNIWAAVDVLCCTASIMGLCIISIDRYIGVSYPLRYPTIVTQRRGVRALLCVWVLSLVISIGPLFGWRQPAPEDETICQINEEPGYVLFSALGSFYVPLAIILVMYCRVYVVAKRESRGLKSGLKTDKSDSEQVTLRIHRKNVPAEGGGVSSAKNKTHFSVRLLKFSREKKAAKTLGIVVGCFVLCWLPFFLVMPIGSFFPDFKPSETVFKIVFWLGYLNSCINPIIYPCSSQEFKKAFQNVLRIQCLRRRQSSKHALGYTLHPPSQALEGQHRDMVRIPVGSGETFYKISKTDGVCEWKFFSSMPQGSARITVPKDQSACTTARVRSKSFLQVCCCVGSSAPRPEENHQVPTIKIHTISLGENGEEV
Experimental: To evaluate in radioligand binding assays the activity of compounds of the invention, rat adrenergic α1A receptor obtained from Wistar Rat submaxillary glands (Michel, A. et al, Br. J. Pharmacol. 98:883, 1989) in a modified Tris-HCl buffer (50 mM Tris-HCl buffer, pH 7.4, 0.5 mM EDTA) was used. Compounds of the invention were incubated with 0.25 nM [^3H]Prazosin for 60 min at 25° C. Non-specific binding was estimated in the presence of 10 μM phentolamine Receptor proteins were filtered and washed, the filters were then counted to determine [^3H]Prazosin specifically bound. Compounds of the invention were screened at 1 μM or lower, using 1% DMSO as vehicle. Biochemical assay results are presented as the percent inhibition of specific binding in Table 3.

[3] = target: T3, human recombinant serotonin (5-Hydroxytryptamine) 5-HT2A receptor (Homo sapiens, UniProt P28223); assay: Serotonin 5-HT2A radioligand binding ([3H]Ketanserin); conditions: compound at 0.1 μM; read-out: Percentage inhibition of ligand binding, Serotonin (0.1 μM) 5-HT2A
T3 construct: expressed in transfected cells; host or cells: Chinese hamster ovary (CHO) K1 cells
Experimental: To evaluate in radioligand binding assays the activity of compounds of the invention, human recombinant serotonin (5-Hydroxytryptamine) 5-HT2A receptor expressed in Chinese hamster ovary (CHO) K1 cells (Bonhaus, D. et al, Br. J. Pharmacol. 115:622, 1995; Saucier, C. et al, J. Neurochem. 68:1998, 1997) in a 50 mM Tris-HCl buffer, pH 7.4, was used. Compounds of the invention were incubated with 0.5 nM [^3H]Ketanserin for 60 min at 25° C. Non-specific binding was estimated in the presence of 1 μM Mianserin. Receptor proteins were filtered and washed, the filters were then counted to determine [^3H]Ketanserin specifically bound. Compounds were screened at 1 μM or lower, using 1% DMSO as vehicle. Biochemical assay results are presented as the percent inhibition of specific binding in Table 4.

T3 sequence (P28223 whole entry): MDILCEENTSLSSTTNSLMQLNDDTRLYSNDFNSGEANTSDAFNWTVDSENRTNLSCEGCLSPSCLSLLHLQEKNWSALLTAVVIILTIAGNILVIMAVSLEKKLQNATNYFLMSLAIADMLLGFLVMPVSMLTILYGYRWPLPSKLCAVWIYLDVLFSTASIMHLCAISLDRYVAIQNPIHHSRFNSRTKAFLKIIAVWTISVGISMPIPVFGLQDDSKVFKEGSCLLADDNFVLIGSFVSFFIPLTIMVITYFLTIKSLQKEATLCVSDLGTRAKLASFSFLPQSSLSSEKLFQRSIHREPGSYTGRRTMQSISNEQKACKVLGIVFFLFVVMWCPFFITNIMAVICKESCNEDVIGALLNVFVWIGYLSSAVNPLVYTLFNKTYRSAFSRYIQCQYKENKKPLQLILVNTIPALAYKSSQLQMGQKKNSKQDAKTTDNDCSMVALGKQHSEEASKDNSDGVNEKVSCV

Compound	inhibition at 0.1 µM [1]	inhibition at 0.1 µM [2]	inhibition at 0.1 µM [3]
C#CCC1(C)CN(C)Cc2c1n(C)c1ccc(C)cc21 (stereo not drawn) [Compound 47, 2,4,5,8-tetramethyl-4-(prop-2-ynyl)-2,3,4,5-tetrahydro-1H-pyrido[4,3-b]indole]	15%	16%	32%
Cc1ccc2c(c1)c1c(n2C)C(C)(CCc2nc(-c3ccccc3)cs2)CN(C)C1 (stereo not drawn) [Compound 48]	2%	34%	39%
